According to patent US20260103468A1, “FUSED RING COMPOUND, PHARMACEUTICAL COMPOSITION, AND USE THEREOF” (Hainan Simcere Zaiming Pharmaceutical Co., Ltd., priority 2022, published 2026):

Tests used:
GSPT1 protein = molecular target: T1, GSPT1 protein (Homo sapiens, UniProt P15170+Q96SW2); assay: Degradation activity experiment on intracellular GSPT1 protein in CAL51 cells; assay type: cell-based; conditions: anti-GSPT1/anti-α-Tubulin antibody staining in 384-well plate; for DC50: 6 hours; for Dmax: CAL-51, 6 hours, read-out: Maximum degradation rate (%) (GSPT1 protein degradation activity)
T1 construct: endogenous in cells; host or cells: CAL51
T1 sequence (P15170 whole entry): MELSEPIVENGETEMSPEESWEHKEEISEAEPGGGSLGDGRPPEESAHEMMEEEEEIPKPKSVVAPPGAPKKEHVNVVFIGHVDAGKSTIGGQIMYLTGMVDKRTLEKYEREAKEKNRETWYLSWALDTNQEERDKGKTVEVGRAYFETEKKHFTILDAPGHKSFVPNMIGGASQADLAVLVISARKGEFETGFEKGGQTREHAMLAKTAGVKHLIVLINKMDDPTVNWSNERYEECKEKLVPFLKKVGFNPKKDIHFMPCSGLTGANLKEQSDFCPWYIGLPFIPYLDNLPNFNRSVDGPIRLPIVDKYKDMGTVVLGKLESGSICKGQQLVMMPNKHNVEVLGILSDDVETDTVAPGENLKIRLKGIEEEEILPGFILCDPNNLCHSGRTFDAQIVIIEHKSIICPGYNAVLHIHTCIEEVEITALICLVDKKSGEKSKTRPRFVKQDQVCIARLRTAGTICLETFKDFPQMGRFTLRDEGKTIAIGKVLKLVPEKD
T1 sequence (Q96SW2 whole entry): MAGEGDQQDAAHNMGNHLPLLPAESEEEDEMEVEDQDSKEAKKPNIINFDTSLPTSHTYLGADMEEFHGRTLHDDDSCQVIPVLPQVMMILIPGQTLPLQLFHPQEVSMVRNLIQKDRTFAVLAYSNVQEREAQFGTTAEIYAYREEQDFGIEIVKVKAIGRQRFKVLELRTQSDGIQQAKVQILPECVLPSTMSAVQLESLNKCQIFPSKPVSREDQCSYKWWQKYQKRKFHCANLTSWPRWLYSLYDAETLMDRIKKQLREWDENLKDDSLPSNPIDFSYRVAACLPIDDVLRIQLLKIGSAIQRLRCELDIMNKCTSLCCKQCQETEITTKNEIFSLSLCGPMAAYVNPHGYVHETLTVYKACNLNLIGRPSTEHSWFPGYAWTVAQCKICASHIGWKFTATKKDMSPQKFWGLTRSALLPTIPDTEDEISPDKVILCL
T1 sequence (Q16531 whole entry partner): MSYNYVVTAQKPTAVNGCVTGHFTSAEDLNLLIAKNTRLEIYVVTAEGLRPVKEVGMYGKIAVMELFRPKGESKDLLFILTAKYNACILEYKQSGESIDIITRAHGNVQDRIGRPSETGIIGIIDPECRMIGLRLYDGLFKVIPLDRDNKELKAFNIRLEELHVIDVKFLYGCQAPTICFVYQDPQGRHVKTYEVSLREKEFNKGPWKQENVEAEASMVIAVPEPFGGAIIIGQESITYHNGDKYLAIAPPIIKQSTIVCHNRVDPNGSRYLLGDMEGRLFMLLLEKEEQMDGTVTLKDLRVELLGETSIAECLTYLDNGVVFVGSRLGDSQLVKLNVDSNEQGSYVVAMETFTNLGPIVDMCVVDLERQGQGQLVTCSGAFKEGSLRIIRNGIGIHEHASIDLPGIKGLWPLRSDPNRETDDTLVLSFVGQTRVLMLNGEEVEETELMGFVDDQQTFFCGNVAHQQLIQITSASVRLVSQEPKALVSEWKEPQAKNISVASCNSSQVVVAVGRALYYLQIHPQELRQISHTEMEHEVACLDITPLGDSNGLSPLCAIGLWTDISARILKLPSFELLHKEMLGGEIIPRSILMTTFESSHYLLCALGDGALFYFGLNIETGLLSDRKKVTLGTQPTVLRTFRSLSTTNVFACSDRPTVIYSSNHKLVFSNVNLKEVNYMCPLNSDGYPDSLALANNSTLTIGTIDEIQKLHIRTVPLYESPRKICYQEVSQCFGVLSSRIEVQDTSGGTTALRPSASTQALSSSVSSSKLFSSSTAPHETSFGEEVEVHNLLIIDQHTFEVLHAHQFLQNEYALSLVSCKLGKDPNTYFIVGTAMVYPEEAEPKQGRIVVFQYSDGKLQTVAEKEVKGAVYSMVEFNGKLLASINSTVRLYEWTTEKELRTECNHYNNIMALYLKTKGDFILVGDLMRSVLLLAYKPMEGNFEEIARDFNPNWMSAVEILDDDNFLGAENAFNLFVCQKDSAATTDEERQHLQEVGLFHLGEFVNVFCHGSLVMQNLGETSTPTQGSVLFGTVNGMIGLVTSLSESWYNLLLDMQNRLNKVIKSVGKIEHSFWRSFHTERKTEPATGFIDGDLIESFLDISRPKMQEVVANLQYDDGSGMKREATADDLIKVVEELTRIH
Protocol: The medium of CAL51 (CBP60360, Kebai) was removed, and PBS was added for rinsing once, and then digested with trypsin (Trypsin-EDTA (0.25%)) for 5 minutes. After digestion, 10 mL of complete medium (DMEM containing 10% FBS[…]) was added to neutralize trypsin, and the cells were then pipetted, collected, centrifuged at 300 g for 5 min. The cell density was adjusted to 266,667 cells/mL. 30 μL of the cell suspension was added to a 384 well plate. The plate was centrifuged at 300 g for 1 min and then incubated in a cell incubator overnight.
Compounds of the present disclosure were dissolved in DMSO, with a mother liquor storage concentration of 10 mM. The gradient dilution of compound mother liquor was carried out through the dose-response program of the compound dilution and loading instrument. The total experimental volume of the dilution program was 30 μL, with the initial concentration of 100 μM for the tested compound. A4-fold dilution was performed, resulting in 10 concentration points. The positive control compound was CC-885 in Test Example 2, the negative control was DMSO, and the DMSO content of all wells was 0.3%. After the procedure, then the plate was centrifuged and incubated in a carbon dioxide incubator for 6 hours.
After 6 hours of administration, the supernatant was discarded, the cells were washed with 50 μL of cold PBS, and then the cells were fixed with 50 μL/well of 4% paraformaldehyde/universal tissue fixation solution, and incubated at room temperature for 1 hour. The paraformaldehyde was discarded and 50 μL/well PBS-0.1% Triton X-100 was added to permeate cells for 30 minutes. PBS-Triton was discarded, 50 μL/well of blocking buffer (927-70001, Li-COR) was added, and incubated at room temperature for 1 hour. The blocking buffer was removed, and 30 μL/well of rabbit anti-GSPT1 (1: 300) (HPA052488, Sigma), mouse anti-α-Tubulin (1: 2000) (T6074, Sigma) primary antibody mixed antibody was added, and incubated at 4° C. overnight. The well was washed with 50 μL/well PBST (PBS containing 0.1% Tween-20) and soaked for 10 minutes per round for 4 times. 30 μL/well of goat anti-mouse 680RD (P/N 925-68070, Li-COR) and goat anti-rabbit 800CW (P/N 925-32211, Li-COR) secondary antibody mixture (1: 5000) was added and incubated at room temperature away from light for 1-1.5 hours. The well was washed with 50 μL/well PBST and soaked for 10 min per round for 4 times. The centrifuge plate was turned upside down, covered with toilet paper, then centrifuged at 1000 rpm/min for 1 minute, and the bottom of the plate was dried. A 384-well plate was scanned with an Azure WB imaging system (Sapphire) and the data was read.
The GSPT1 protein degradation activity of the compounds of the present disclosure in CAL51 cells was measured by the above assay, and the protein degradation rate of each sample well was calculated based on the raw data.
[formula] • Sample reading: refers to the signal value of the experimental group; • DSMO reference mean reading; refers to the mean signal value of the DSMO control group. No test compound was added to the […], and other operations were consistent with those of the experimental group.
Data analysis was performed by GraphPad Prism 9. The concentration-effect curves were obtained using a nonlinear four-parameter fitting, and DC50 of compounds was calculated:
[formula] • Wherein: • X: Log of the compound concentration. • Y: degradation rate (%); • Bottom is the minimum percent degradation: • Top is the maximum percent degradation: • HillSlope is the slope coefficient of the curve.

[1] = molecular target: T2, GST-labeled human Cereblon WT (Homo sapiens, UniProt Q96SW2); assay: Cereblon binding experiment (HTRF Human Cereblon Binding Kit); conditions: HTRF competition with XL665-labeled lenalidomide tracer; incubated at room temperature for 3 hours; read-out: IC50 (binding ability to Cereblon)
T2 construct: purchased
T2 sequence (Q96SW2 whole entry): as the sequence (Q96SW2 whole entry) above
Description: The detection kit (HTRF Human Cereblon Binding Kits) used in the experiment was a detection method for quantitative measurement of Cereblon WT ligand using HTRF® technology. The detection principle was based on HTRF technology. The specifically labeled GST antibody (Eurum Cryptate, donor) bound to the GST-labeled human Cereblon WT ligand and the XL665-labeled lenalidomide tracer (acceptor) at the same time. The donor was excited with a light source to initiate fluorescence resonance energy transfer (FRET) to the acceptor. The acceptor emitted fluorescence at a specific wavelength of 665 nm. After adding the compound, the compound competed with XL665-labeled lenalidomide to prevent FRET. The FRET signal ratio was inversely proportional to the compound concentration.
Compounds of the present disclosure were dissolved in DMSO, with a mother liquor storage concentration of 10 mM. […] The HTRF signal in each well was measured using an Envision plate reader. […]
The ratio of acceptor and donor emission signals was calculated for each well: […]
Data analysis was performed by GraphPad Prism 9. The concentration-effect curves were obtained using a nonlinear four-parameter fitting, and IC50 of compounds was calculated: […]
The binding ability of the compounds of the present disclosure to Cereblon was determined by the above assay, and the measured IC50 values were shown in Table 1.

CAL51 cells = assay: Anti-proliferative activity experiment on CAL51 cells (CellTiter-Glo 3D); assay type: cell-based; conditions: Homo sapiens, CAL-51, 72 h, CAL51 cell spheroid, incubated 3 days
Protocol: The medium of target cells CAL51 (CBP60360, Kebai) was removed, and PBS was added for rinsing once, and then digested with trypsin (Trypsin-EDTA (0.25%)) for 5 minutes. After digestion, 10 mL of complete medium (DMEM containing 10% FBS) was added to neutralize trypsin, and the cells were pipetted and collected, then centrifuged at 300 g for 5 min, counted. The cell density was adjusted to 40,000 cells/mL. 90 μL cell suspension was added to a 96-well low adsorption plate. 200 μL of PBS was added to the edge wells. The plate was centrifuged at 300 g for 5 minutes to form cell spheroid, which were then incubated in a cell incubator overnights. […]
The cells were removed from the incubator and returned to room temperature for […]. 50 μL of CellTiter-Glo® 3D Cell Viability Assay reagent was added, and the plate was shaked and mixed well for 10 minutes, and then the plate was read with an Envision plate reader.
The anti-proliferative activity of the compound of the present disclosure on CAL51 cells was measured by the above assay, and the cell growth inhibition rate of each sample well was calculated based on the raw data.
[formula] • Sample reading: refers to the signal value of the experimental group; • DMSO reference mean reading: refers to the mean signal value of the DMSO control group. […]

Q: Which DC50 (GSPT1 protein) does the source give for `Cc1ccc(NC(=O)NCc2ccc3c(c2)cc2n3C(=O)N(C3CCC(=O)NC3=O)C2)cc1Cl` (centres unmarked) [Compound 2, 1-(3-chloro-4-methylphenyl)-3-((2-(2,6-dioxopiperidin-3-yl)-3-oxo-2,3-dihydro-1H-imidazo [1,5-a]indol-7-yl)methyl) urea] here?
A: 86.3 nM

Q: What about the Dmax (GSPT1 protein) of the same molecule?
A: 95.4%

Q: With `O=C1CCC(N2Cc3cc4cc(COC(=O)Nc5cc(OC(F)(F)F)ccc5F)ccc4n3C2=O)C(=O)N1` (centres unmarked) [Compound 5, 2-(2,6-dioxopiperidin-3-yl)-3-oxo-2,3-dihydro-1H-imidazo [1,5-a] indol-7-yl) methyl (2-fluoro-5-trifluoromethoxy) phenyl) carbamate] as the molecule, how does the DC50 (GSPT1 protein) read?
A: 20 nM

Q: And the Dmax (GSPT1 protein)?
A: 96.7%

Q: `O=C1CCC(N2Cc3nc4ccccc4n3C2=O)C(=O)N1` (centres unmarked) [Compound 14, 3-(1-oxo-1H-benzo [d]imidazo [1,5-a]imidazol-2 (3H)-yl) piperidine-2,6-dione] was tested. Which IC50 [1] did it give?
A: 1000 to 10000 nM

Q: `Cc1ccc(NC(=O)OCc2ccc3c(c2)cc2n3C(=O)N(C3CCC(=O)NC3=O)C2)cc1Cl` (centres unmarked) [Compound 3, (2-(2,6-dioxopiperidin-3-yl)-3-oxo-2,3-dihydro-1H-imidazo [1,5-a]indol-7-yl) methyl-(3-chloro-4-methylphenyl) carbamate] was tested. Which DC50 (GSPT1 protein) did it give?
A: 25.4 nM

Q: What about the Dmax (GSPT1 protein) of the same molecule?
A: 98.3%

Q: What about the IC50 (CAL51 cells) of the same molecule?
A: 39 nM

Q: Which DC50 (GSPT1 protein) does the source give for `CNCCOCCc1cc(NC(=O)OCc2ccc3c(c2)cc2n3C(=O)N(C3CCC(=O)NC3=O)C2)ccc1Cl` (centres unmarked) [Compound 9, (2-(2,6-dioxopiperidin-3-yl)-3-oxo-2,3-dihydro-1H-imidazo [1,5-a]indol-7-yl) methyl-(4-chloro-3-(2-(2-(methylamino)ethoxy)ethyl)phenyl) carbamate] here?
A: 1460 nM

Q: What about the Dmax (GSPT1 protein) of the same molecule?
A: 69.6%

Q: How did the IC50 [1] turn out when `O=C1CCC(N2Cc3cc4ccccc4n3C2=O)C(=O)N1` (centres unmarked) [Compound 1, 3-(3-oxo-1H-imidazo [1,5-a]indol-2 (3H)-yl) piperidine-2,6-dione] was run?
A: 1000 to 10000 nM

Q: Which results are given for `CNc1cc(C#CC(=O)NCc2ccc3c(c2)cc2n3C(=O)N(C3CCC(=O)NC3=O)C2)ccc1C` (centres unmarked) [Compound 4, N-((2-(2,6-dioxopiperidin-3-yl)-3-oxo-2,3-dihydro-1H-imidazo [1,5-a]indol-7-yl)methyl)-3-(4-methyl-3-(methylamino)phenyl) propinamide]?
A: DC50 (GSPT1 protein): 144 nM; Dmax (GSPT1 protein): 85.3%

Q: `Cc1ccc(NC(=O)OCc2cccc3c2cc2n3C(=O)N(C3CCC(=O)NC3=O)C2)cc1Cl` (centres unmarked) [Compound 13, 2-(2,6-dioxopiperidin-3-yl)-3-oxo-2,3-dihydro-1H-imidazo [1,5-a] indol-8-yl) methyl (3-chloro-4-methylphenyl) carbamate] was tested. Which DC50 (GSPT1 protein) did it give?
A: 135 nM

Q: What about the Dmax (GSPT1 protein) of the same molecule?
A: 96.3%

Q: Which results are given for `CNc1ccc(NC(=O)OCc2ccc3c(c2)cc2n3C(=O)N(C3CCC(=O)NC3=O)C2)cc1Cl` (centres unmarked) [Compound 8, (2-(2,6-dioxopiperidin-3-yl)-3-oxo-2,3-dihydro-1H-imidazo [1,5-a]indol-7-yl) methyl-(3-chloro-4-(methylamino)phenyl) carbamate]?
A: DC50 (GSPT1 protein): 13 nM; Dmax (GSPT1 protein): 94.6%
